The values that follow come from patent US20200062719A1, “Application of Imidazopyridine Derivatives in Regenerative Medicine” (University of Heidelberg, priority 2018, published 2020).

Test [1] has as its system KDM4. Briefly: KDM4 (JMJD2) demethylase inhibition, nuclear extraction. It is filed as biochemical. The text has this: (§1) HMT and HDM are two major classes of enzymes, contributing to the regulation of histone methylation. Lysine-specific demethylase 1 (LSD1) and histone lysine demethylase 5 (KDM5, also known as JARID1) majorly catalyze demethylation of H3K4. A few KDM5 chemical inhibitors have been reported to inhibit demethylation of H3K4, leading to an increase of global methylated H3K4 in various cell types. The inventors tested the inhibitory effect of O4I3 on LSD1 and KDM5. KDM4 (also known as JMJD2), the HDM of H3K9 and H3K36, was also included.
(§2) Epiquik histone demethylase (H3K4 specific) activity/inhibition assay kit (Epigentek, Biocat, Germany) was used to measure the protective effect of O4I3 and zolpidem on the methylation of H3K4. Their inhibitory effects on LSD1, KDM5s, and KDM4 were determined using Epigenase jarid demethylase activity/inhibition assay kit, Epigenase JMJD2 demethylase activity/inhibition assay kit and EpiQuik histone demethylase LSD1 activity/inhibition assay kit (Epigentek, Biocat, Germany). The total nuclear extraction was used according to manufacturer's instructions. For measuring KDM5A, KDM5B, KDM5C, and KDM5D activity, magnetic beads were used to immunoprecipitate the respective enzymes from 10^8 cells according to the manufacturer's instructions (Cell Signaling Technologies).

In test [2] the target is T1, KDM4.
T1 construct: other: whole-cell nuclear extraction; other: micromolar concentrations
The description is as above. The class given is biochemical. The settings on record: whole-cell nuclear extraction.
Text: as §1, §2

For a further test, the system named is human fibroblasts. In words: qRT-PCR of reprogramming associated genes in human fibroblasts. It is filed as cell-based. The settings on record: human fibroblasts, O4I3 0.5 μM. How it is done:
Analyzing the effects of O4I3 on human fibroblasts, the activation of reprogramming associated genes, including an about 10-fold induction of Oct4, Nanog and Lin28, and an about 100-fold increase of Sox2 and E-Cadherin mRNA levels was detected. In particular, expression of several essential genes for reprogramming is equal to those in pluripotent stem cells, such as Esrrb, FGF2 and Sall4 (FIG. 12).
Quantitative reverse-transcription real-time-PCR was performed using a Light Cycler 96 (Roche, Germany) following the manufacturer's protocol. Briefly, total RNA was isolated from cells using TRIzol (Qiagen, Germany) or NucleoSpin®RNA Plus (Macherey-Nagel, Germany). The same amount of RNA was used to reverse-transcriptional synthesize cDNA by using random primers ProtoScript® First Strand cDNA Synthesis Kit (NEB, Germany). qPCR was performed using the SYBR Green PCR master mix (qPCRBIO SyGreen Mix Lo-Rox, Nippon Genetics, Germany) and the primer pairs indicated below (MWG, Eurofins, Germany). Actin was used as an endogenous control. Data were normalized to the value of untreated cells showing the mean±SD of quadruplicates and are representative of at least three independent experiments.
(In qPCR the cycle at which signal appears reflects the starting amount.)

Test [3] has as its system reprogramming-related proteins. In words: Phosphorylation microarray in NCCIT and JoPaca-1 cells. It is filed as cell-based. The settings on record: NCCIT and JoPaca-1, 1 μM, 24 hours. The method, then: Cells were analysed in the presence (24 hours O4I3 1 μM) or absence (NT) of O4I3.
The cellular responses to O4I3 was analyzed in two stem cell lines, NCCIT and JoPaca-1 (FIG. 10).

A further test deals with Oct4. In words: Luciferase reporter assay in NCCIT-Oct4 cells. The class given is cell-based, human. The method, then: The ability of the lead compound to induce Oct4 at translational level was tested in a luciferase reporter cell line in human embryonic carcinoma NCCIT cells driven by Oct4 response elements (NCCIT-Oct4). The compound lead to a nearly 10-fold induction of Oct4 at 10 nM compared to untreated cells (FIG. 1B). Consequently, the lead compound was named “Oct4 inducing compound 3” (O4I3).
Luciferase reporter assay was performed using Beatle Juice Kit (PJK, Germany) according to the manufacturer's instruction. NCCIT-Oct and NCCIT-Nanog reporter cells were plated into a 24-well plate (100,000 cells/well) for 24 h. Cells were treated with compounds as indicated and harvested with luciferase lysis buffer (25 mM Tris phosphate buffer pH=7.8, 4 mM EGTA, 1% Triton X-100, 10% glycerol and 2 mM fresh DTT, filtered through 0.45 μm sterile filter) at 37° C. for 15 min. The protein concentration was determined by Bradford assay (Sigma, Germany). 100 μL reaction mixture containing luciferin and ATP was added to 20 μL cell lysis in a white plate (Gibco, Germany), incubated for 5 min and measured by a luminometer plate-reader. The activity was determined as percent luminous intensity of treated cells over control cells from at least five-independent experiments.
(In general: A reporter such as luciferase makes a cellular process visible.)

What is called IC50 is the concentration needed to halve the response being measured. A higher IC50 goes with lower potency. Take `Cc1ccc(-c2cn3cc(C)ccc3n2)cc1` [O4I3, 6-methyl-2-(p-tolyl)imidazo[1,2-a]pyridine]: the “less potency on KDM4 than on KDM5” value with KDM4 [1] is given as 500 fold. The half-inhibitory concentration (IC50) against KDM4 [2] was determined as 249 nM. In addition, in the test with human fibroblasts, the “increase of E-Cadherin mRNA levels” value was “about 100 fold”, the “increase of Sox2 mRNA levels” value is “about 100 fold”, the “induction of Lin28 mRNA” value is reported as “about 10 fold” and the “induction of Nanog mRNA” value is on record as “about 10 fold”. The “induction of Oct4 mRNA” value in the test on human fibroblasts is listed as “about 10 fold”. In test [3], the “activation of Erk1” value is “selectively activated” and the “activation of Erk2” value is listed as “not”. For the same compound, the “induction of Oct4 compared to untreated cells” value with Oct4 (10 nM, NCCIT-Oct4 cells, 48 h) is about 10 fold. Further, the “time course of Oct4 activation” value in the test on Oct4 (over 4 days) is “continuous and constant activation”.
